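48-hour exposure; five concentrations; linearly interpolated endpoints. Here, GI50 denotes the concentration required for 50% inhibition of growth. TGI is the concentration that stops growth completely.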
What was measured:
Test in all cases: NCI anticancer screen, dose series, 48 h
786-0 renal = system: 786-0 renal
A498 renal = system: A498 renal
A549 NSCLC = system: A549 NSCLC
ACHN renal = system: ACHN renal
BT-549 breast = system: BT-549 breast
CAKI-1 renal = system: CAKI-1 renal
CCRF-CEM leukemia = system: CCRF-CEM leukemia
COLO 205 colon = system: COLO 205 colon
DU-145 prostate = system: DU-145 prostate
HCC-2998 colon = system: HCC-2998 colon
HCT-116 colon = system: HCT-116 colon
HCT-15 colon = system: HCT-15 colon
HOP-62 NSCLC = system: HOP-62 NSCLC
HOP-92 NSCLC = system: HOP-92 NSCLC
HS 578T breast = system: HS 578T breast
HT29 colon = system: HT29 colon
IGROV1 ovarian = system: IGROV1 ovarian
K-562 leukemia = system: K-562 leukemia
KM12 colon = system: KM12 colon
LOX IMVI melanoma = system: LOX IMVI melanoma
M14 melanoma = system: M14 melanoma
MCF7 breast = system: MCF7 breast
MDA-MB-231 breast = system: MDA-MB-231 breast
MDA-MB-435 = system: MDA-MB-435
MOLT-4 leukemia = system: MOLT-4 leukemia
NCI-H226 lung = system: NCI-H226 lung
NCI-H23 lung = system: NCI-H23 lung
NCI-H460 lung = system: NCI-H460 lung
NCI-H522 lung = system: NCI-H522 lung
NCI/ADR-RES ovarian = system: NCI/ADR-RES ovarian
OVCAR-4 ovarian = system: OVCAR-4 ovarian
OVCAR-5 ovarian = system: OVCAR-5 ovarian
OVCAR-8 ovarian = system: OVCAR-8 ovarian
PC-3 prostate = system: PC-3 prostate
RPMI-8226 leukemia = system: RPMI-8226 leukemia
RXF 393 renal = system: RXF 393 renal
SF-268 CNS = system: SF-268 CNS
SF-295 CNS = system: SF-295 CNS
SF-539 CNS = system: SF-539 CNS
SK-MEL-2 melanoma = system: SK-MEL-2 melanoma
SK-MEL-28 melanoma = system: SK-MEL-28 melanoma
SK-MEL-5 melanoma = system: SK-MEL-5 melanoma
SK-OV-3 ovarian = system: SK-OV-3 ovarian
SN12C renal = system: SN12C renal
SNB-19 CNS = system: SNB-19 CNS
SNB-75 CNS = system: SNB-75 CNS
SR leukemia = system: SR leukemia
SW-620 colon = system: SW-620 colon
T-47D breast = system: T-47D breast
U251 CNS = system: U251 CNS
UACC-257 melanoma = system: UACC-257 melanoma
UACC-62 melanoma = system: UACC-62 melanoma
UO-31 renal = system: UO-31 renal
EKVX NSCLC = system: EKVX NSCLC
HL-60(TB) leukemia = system: HL-60(TB) leukemia
MALME-3M melanoma = system: MALME-3M melanoma
OVCAR-3 ovarian = system: OVCAR-3 ovarian
TK-10 renal = system: TK-10 renal

## COC(=O)C(Cc1ccccc1)N/C=C\C(=O)c1ccc(Cl)cc1 (stereo not given)
786-0 renal
  GI50: 23.6 µM
  TGI: 61.9 µM
A498 renal
  GI50: 31.1 µM
  TGI: 75.8 µM
A549 NSCLC
  GI50: 50.1 µM
  TGI: > 100 µM
ACHN renal
  GI50: 23.6 µM
  TGI: 54.9 µM
BT-549 breast
  GI50: 28.1 µM
  TGI: > 100 µM
CAKI-1 renal
  GI50: 21.3 µM
  TGI: 44.4 µM
CCRF-CEM leukemia
  GI50: 39.7 µM
  TGI: > 100 µM
COLO 205 colon
  GI50: 32.5 µM
  TGI: > 100 µM
DU-145 prostate
  GI50: 31.5 µM
  TGI: > 100 µM
HCC-2998 colon
  GI50: 18.5 µM
  TGI: 40.1 µM
HCT-116 colon
  GI50: 16.4 µM
  TGI: 36.9 µM
HCT-15 colon
  GI50: 23.6 µM
  TGI: 59.3 µM
HOP-62 NSCLC
  GI50: 25.1 µM
  TGI: 67.6 µM
HOP-92 NSCLC
  GI50: 43.7 µM
  TGI: > 100 µM
HS 578T breast
  GI50: 25 µM
  TGI: 63.8 µM
HT29 colon
  GI50: 35.1 µM
  TGI: > 100 µM
IGROV1 ovarian
  GI50: > 100 µM
  TGI: > 100 µM
K-562 leukemia
  GI50: 54.7 µM
  TGI: > 100 µM
KM12 colon
  GI50: 21.2 µM
  TGI: 47.1 µM
LOX IMVI melanoma
  GI50: 19.6 µM
  TGI: 39.4 µM
M14 melanoma
  GI50: 19.1 µM
  TGI: 44.7 µM
MCF7 breast
  GI50: 26.2 µM
  TGI: 66.4 µM
MDA-MB-231 breast
  GI50: 14.4 µM
  TGI: 40.9 µM
MDA-MB-435
  GI50: 14.1 µM
  TGI: 30.8 µM
MOLT-4 leukemia
  GI50: 35.2 µM
  TGI: > 100 µM
NCI-H226 lung
  GI50: 26 µM
  TGI: 77.3 µM
NCI-H23 lung
  GI50: 18.3 µM
  TGI: 45.7 µM
NCI-H460 lung
  GI50: 20.5 µM
  TGI: 48.2 µM
NCI-H522 lung
  GI50: 32.5 µM
  TGI: > 100 µM
NCI/ADR-RES ovarian
  GI50: 19.7 µM
  TGI: 50.4 µM
OVCAR-4 ovarian
  GI50: 50.4 µM
  TGI: > 100 µM
OVCAR-5 ovarian
  GI50: 24.9 µM
  TGI: 74.4 µM
OVCAR-8 ovarian
  GI50: 35.3 µM
  TGI: 88.9 µM
PC-3 prostate
  GI50: 18.8 µM
  TGI: 45 µM
RPMI-8226 leukemia
  GI50: 36.7 µM
  TGI: > 100 µM
RXF 393 renal
  GI50: 20.4 µM
  TGI: 53.3 µM
SF-268 CNS
  GI50: 31.6 µM
  TGI: 67.4 µM
SF-295 CNS
  GI50: 14.8 µM
  TGI: 35.8 µM
SF-539 CNS
  GI50: 18.6 µM
  TGI: 45.1 µM
SK-MEL-2 melanoma
  GI50: 59.9 µM
  TGI: > 100 µM
SK-MEL-28 melanoma
  GI50: 45.4 µM
  TGI: > 100 µM
SK-MEL-5 melanoma
  GI50: 19.3 µM
  TGI: 33.5 µM
SK-OV-3 ovarian
  GI50: 26.7 µM
  TGI: 92.4 µM
SN12C renal
  GI50: 16.7 µM
  TGI: 40.5 µM
SNB-19 CNS
  GI50: 38 µM
  TGI: > 100 µM
SNB-75 CNS
  GI50: > 100 µM
  TGI: > 100 µM
SR leukemia
  GI50: 48.1 µM
  TGI: > 100 µM
SW-620 colon
  GI50: 31.7 µM
  TGI: 97.2 µM
T-47D breast
  GI50: 37 µM
  TGI: > 100 µM
U251 CNS
  GI50: 22 µM
  TGI: 51.7 µM
UACC-257 melanoma
  GI50: 26.5 µM
  TGI: 67.1 µM
UACC-62 melanoma
  GI50: 19.7 µM
  TGI: 45.8 µM
UO-31 renal
  GI50: 38.4 µM
  TGI: > 100 µM

## COc1cc2c3c(n(CCCN4CCC(N)CC4)c(=O)c2cc1OC)-c1cc2c(cc1C3=O)OCO2
786-0 renal
  GI50: 0.763 µM
  TGI: 2.38 µM
A498 renal
  GI50: 3.03 µM
  TGI: 10.8 µM
A549 NSCLC
  GI50: 0.278 µM
  TGI: 0.927 µM
ACHN renal
  GI50: 0.336 µM
  TGI: 1.24 µM
BT-549 breast
  GI50: 2.41 µM
  TGI: 9.84 µM
CAKI-1 renal
  GI50: 0.311 µM
  TGI: 2.99 µM
CCRF-CEM leukemia
  GI50: 0.129 µM
  TGI: 0.681 µM
COLO 205 colon
  GI50: 2.86 µM
  TGI: 7.38 µM
DU-145 prostate
  GI50: 0.14 µM
  TGI: 0.803 µM
EKVX NSCLC
  GI50: 1.31 µM
  TGI: 3.87 µM
HCC-2998 colon
  GI50: 0.143 µM
  TGI: 3.52 µM
HCT-116 colon
  GI50: 0.119 µM
  TGI: 0.807 µM
HCT-15 colon
  GI50: 1.01 µM
  TGI: 6.01 µM
HL-60(TB) leukemia
  GI50: 4.04 µM
  TGI: 7.87 µM
HOP-62 NSCLC
  GI50: 0.423 µM
  TGI: 1.11 µM
HOP-92 NSCLC
  GI50: 0.202 µM
  TGI: 1.5 µM
HS 578T breast
  GI50: 1.69 µM
  TGI: 11.7 µM
HT29 colon
  GI50: 0.621 µM
  TGI: 9.81 µM
IGROV1 ovarian
  GI50: 1.7 µM
  TGI: 16 µM
K-562 leukemia
  GI50: 0.587 µM
  TGI: 6.91 µM
KM12 colon
  GI50: 0.619 µM
  TGI: 1.59 µM
LOX IMVI melanoma
  GI50: 0.298 µM
  TGI: 1.02 µM
M14 melanoma
  GI50: 1.34 µM
  TGI: 5.23 µM
MALME-3M melanoma
  GI50: 2.09 µM
  TGI: 9.89 µM
MCF7 breast
  GI50: 0.283 µM
  TGI: 1.01 µM
MDA-MB-231 breast
  GI50: 0.682 µM
  TGI: 1.36 µM
MDA-MB-435
  GI50: 1.77 µM
  TGI: 8.47 µM
MOLT-4 leukemia
  GI50: 0.0456 µM
  TGI: 1.89 µM
NCI-H226 lung
  GI50: 0.757 µM
  TGI: 2.95 µM
NCI-H23 lung
  GI50: 0.475 µM
  TGI: 1.6 µM
NCI-H460 lung
  GI50: 0.184 µM
  TGI: 0.858 µM
NCI-H522 lung
  GI50: 3.4 µM
  TGI: 21.7 µM
NCI/ADR-RES ovarian
  GI50: 2.93 µM
  TGI: 20.8 µM
OVCAR-3 ovarian
  GI50: 0.765 µM
  TGI: 1.9 µM
OVCAR-4 ovarian
  GI50: 0.211 µM
  TGI: 1.27 µM
OVCAR-5 ovarian
  GI50: 1.45 µM
  TGI: 5.15 µM
OVCAR-8 ovarian
  GI50: 0.368 µM
  TGI: 1.51 µM
PC-3 prostate
  GI50: 0.302 µM
  TGI: 2.11 µM
RPMI-8226 leukemia
  GI50: 0.202 µM
  TGI: 1.02 µM
RXF 393 renal
  GI50: 0.94 µM
  TGI: 3.31 µM
SF-268 CNS
  GI50: 1.72 µM
  TGI: 8.89 µM
SF-295 CNS
  GI50: 0.479 µM
  TGI: 1.36 µM
SF-539 CNS
  GI50: 0.254 µM
  TGI: 0.863 µM
SK-MEL-2 melanoma
  GI50: 3.68 µM
  TGI: 24.2 µM
SK-MEL-28 melanoma
  GI50: 0.983 µM
  TGI: 2.9 µM
SK-MEL-5 melanoma
  GI50: 1.84 µM
  TGI: 8.47 µM
SK-OV-3 ovarian
  GI50: 3.47 µM
  TGI: 13.2 µM
SN12C renal
  GI50: 0.338 µM
  TGI: 1.08 µM
SNB-19 CNS
  GI50: 1.46 µM
  TGI: 8.7 µM
SNB-75 CNS
  GI50: 0.89 µM
  TGI: 5.56 µM
SW-620 colon
  GI50: 0.447 µM
  TGI: 1.43 µM
T-47D breast
  GI50: 1.06 µM
  TGI: 4 µM
TK-10 renal
  GI50: 0.774 µM
  TGI: 4.36 µM
U251 CNS
  GI50: 0.307 µM
  TGI: 0.945 µM
UACC-257 melanoma
  GI50: 7.9 µM
  TGI: 17.9 µM
UACC-62 melanoma
  GI50: 1.33 µM
  TGI: 6.34 µM
UO-31 renal
  GI50: 2.32 µM
  TGI: 16.5 µM

Source: PubChem BioAssay (NCI)
